Experiment [1] concerns the target T1, AMPKα1β1γ1 (Homo sapiens, UniProt Q13131+Q9Y478).
T1 construct: purchased CARNA 02-113
The experiment is described as follows: In vitro assay for AMPK (α1β1γ1) enzyme agonist activity (TR-FRET). It counts as biochemical. The note with it: 1 h; activity of 1 µM A769662 set as 100%; read-out: Top value (%). As for the experimental part: Test example 1: In vitro assay for AMPK (α1β1γ1) enzyme agonist activity
Test compounds were dissolved in DMSO to prepare 10 mM stock solution, which was then diluted to the predetermined test concentrations using kinase buffer (50 mM HEPES, 1 mM EDTA, 10 mM MgCl2, 0.01% Brij-35, pH = 7.5). Into a 384-well plate were added 5 µL of AMPKα1β1γ1 (CARNA, 02-113), 2.5 µL of the diluted test compound solution, and 2.5 µL of a mixture of […] and ATP, resulting in the following final concentrations: AMPKα1β1γ1 at 1.6 mg/L, […] at 5 nM, and ATP at 0.1 mM. The components were mixed evenly, and reacted at room temperature for 1 h. Subsequently, 5 µL of LANCE Detection Buffer (CR97-100, PerkinElmer) containing 40 mM EDTA was added. After standing for 5 min, 5 µL of 4× Eu-anti-phospho-CREB Antibody (TRF0200-M, PerkinElmer) was added, and the mixture was allowed to stand at room temperature for 1 h. The values of samples in each well were read using a microplate reader in TR-FRET mode (excitation wavelength: 320 nm; emission wavelengths: 665 nm and 615 nm). By comparing the values with those of the blank control group (1% DMSO) and the positive control group (1 µM A769662), the relative activity of AMPKα1β1γ1 at each test compound concentration (4.57 nM, 13.72 nM, 41.15 nM, 123.46 nM, 370.37 nM, 1111.11 nM, 3333.33 nM, and 10000 nM) was calculated, with the activity of 1 µM A769662 set as 100%. The data were analysed in GraphPad Prism 9 using a Dose-response-Stimulation four-parameter regression model to obtain the Top and EC50 values for the test compounds.
In general terms: Time-resolved FRET reads energy transfer from a long-lived donor to a nearby acceptor.

Experiment [2] relates to AMPK. The note with it: Tamura et al., Bioorganic & Medicinal Chemistry Letters, Vol. 68, 2022, 128769; cited from earlier work.

Results on 29 compounds are retold here after patent EP4772502A1, “ARYL OR HETEROARYL SUBSTITUTED CARBAMATE COMPOUND AND DERIVATIVE AND USE THEREOF” (Shenzhen Zhongge Biological Technology Co., Ltd., priority 2023, dated 2025).

A value given as a limit tells only on which side of the number the result lay.

T1 sequence (Q13131 whole entry): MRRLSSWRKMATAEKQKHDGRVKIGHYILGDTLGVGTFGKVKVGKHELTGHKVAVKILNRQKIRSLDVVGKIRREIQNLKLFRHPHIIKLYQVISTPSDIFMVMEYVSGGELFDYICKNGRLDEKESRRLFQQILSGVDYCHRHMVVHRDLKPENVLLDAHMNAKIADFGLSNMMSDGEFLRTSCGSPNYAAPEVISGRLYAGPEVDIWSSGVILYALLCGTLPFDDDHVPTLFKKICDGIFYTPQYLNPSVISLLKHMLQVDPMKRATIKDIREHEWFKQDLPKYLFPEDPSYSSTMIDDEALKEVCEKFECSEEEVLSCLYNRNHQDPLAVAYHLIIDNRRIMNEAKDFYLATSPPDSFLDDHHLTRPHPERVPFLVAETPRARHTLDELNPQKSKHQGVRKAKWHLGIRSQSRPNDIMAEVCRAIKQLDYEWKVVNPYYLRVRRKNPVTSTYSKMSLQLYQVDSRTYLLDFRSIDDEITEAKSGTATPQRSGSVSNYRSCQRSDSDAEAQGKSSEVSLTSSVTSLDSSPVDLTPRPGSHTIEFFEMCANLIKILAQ
T1 sequence (Q9Y478 whole entry): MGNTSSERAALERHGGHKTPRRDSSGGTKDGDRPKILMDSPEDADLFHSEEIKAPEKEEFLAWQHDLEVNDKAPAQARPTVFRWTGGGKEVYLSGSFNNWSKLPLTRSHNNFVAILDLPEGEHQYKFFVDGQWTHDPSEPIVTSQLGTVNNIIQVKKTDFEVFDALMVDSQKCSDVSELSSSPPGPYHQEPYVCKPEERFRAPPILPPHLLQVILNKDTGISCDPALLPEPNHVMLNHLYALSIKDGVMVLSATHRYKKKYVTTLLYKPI
T1 sequence (P54619 whole entry partner): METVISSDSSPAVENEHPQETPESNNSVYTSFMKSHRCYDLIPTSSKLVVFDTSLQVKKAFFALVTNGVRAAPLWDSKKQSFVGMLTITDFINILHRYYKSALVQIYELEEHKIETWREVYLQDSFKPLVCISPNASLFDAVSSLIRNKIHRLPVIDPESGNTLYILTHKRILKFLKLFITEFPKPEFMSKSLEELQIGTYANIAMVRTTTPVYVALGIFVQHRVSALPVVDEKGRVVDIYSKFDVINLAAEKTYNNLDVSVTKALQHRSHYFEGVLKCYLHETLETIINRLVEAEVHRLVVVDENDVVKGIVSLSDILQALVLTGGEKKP

For the compound `O=C(Nc1cc(-c2ccc(C3(CO)CC3)cc2)c(Cl)s1)O[C@@H]1CO[C@H]2[C@@H]1OC[C@H]2O` [compound 1], in experiment [1], the Emax is 200 to 300%.

As to `O=C(Nc1cc(Cl)c(-c2ccc(-c3ccccc3)cc2)s1)O[C@@H]1CO[C@H]2[C@@H]1OC[C@H]2O` [compound 4], the Emax in experiment [1] fell in the range of 150 to 200%.

Consider `O=C(Nc1cc(Cl)c(-c2ccc(-c3ccccc3O)cc2)s1)OCCCO` [Compound 42], for which, in experiment [1], the Emax lay in the range of 150 to 200%. On the same count and under the same terms, in the case of `O=C(Nc1cc(Cl)c(C#CC2(O)CCC2)s1)O[C@@H]1CO[C@H]2[C@@H]1OC[C@H]2O` [Compound 28] it was 70 to 100%. Turning to `CCc1cc(NC(=O)O[C@@H]2CO[C@H]3[C@@H]2OC[C@H]3O)sc1-c1ccc(C2(CO)CC2)cc1` [Compound 40], the Emax in experiment [1] lay in the range of 100 to 150%. Same read-out and setting: in the case of `O=C(Nc1cc(Cl)c(C#Cc2ccccc2)s1)O[C@@H]1CO[C@H]2[C@@H]1OC[C@H]2O` [compound 17] it was 200 to 300%. As to `O=C(Nc1ncc(-c2ccc(-c3ccccc3)cc2)s1)O[C@@H]1CO[C@H]2[C@@H]1OC[C@H]2O` [compound 11], the AMPK agonist activity result in experiment [2] was “no AMPK agonist activity”.

Take `CS(=O)(=O)c1ccc(-c2ccc(-c3sc(NC(=O)O[C@@H]4CO[C@H]5[C@@H]4OC[C@H]5O)cc3Cl)cc2)cc1` [compound 19]: the Emax in experiment [1] fell in the range of 150 to 200%. `O=C(Nc1cc(Cl)c(-c2ccc(C3(O)CCC3)cc2)s1)O[C@@H]1CO[C@H]2[C@@H]1OC[C@H]2O` [compound 7]: in experiment [1], the Emax lay within 200 to 300%.

For the compound `O=C(Nc1cc(Cl)c(-c2ccc(-c3ccccc3O)cc2)s1)O[C@@H]1CO[C@H]2[C@@H]1OC[C@H]2O` [compound 6], in experiment [1], the Emax was 200 to 300%. The same measure, in the same setting: in the case of `O=C(Nc1cc(Cl)c(-c2ccc(C3(CO)CC3)cc2)s1)O[C@H]1CC[C@H](CO)CC1` [Compound 39] it was 100 to 150%. On to `COc1ccc(-c2sc(NC(=O)O[C@@H]3CO[C@H]4[C@@H]3OC[C@H]4O)cc2Cl)cc1` [compound 10], for which, in experiment [1], the Emax lay in the range of 200 to 300%. On to `O=C(Nc1cc(Cl)c(-c2ccc(C3(CO)CC3)cc2)s1)O[C@H]1CC[C@H](C(=O)O)CC1` [Compound 38], for which the Emax in experiment [1] is 150 to 200%.

On to `O=C(Nc1cc(Cl)c(-c2ccc(N3CCCC3)cc2)s1)O[C@@H]1CO[C@H]2[C@@H]1OC[C@H]2O` [compound 14], for which the Emax in experiment [1] lay within 70 to 100%. Take `O=C(Nc1cc(Cl)c(C#Cc2ccccc2O)s1)O[C@@H]1CO[C@H]2[C@@H]1OC[C@H]2O` [compound 20]: the Emax in experiment [1] was ≥ 300%. As to `CN1CCC(c2ccc(-c3sc(NC(=O)O[C@@H]4CO[C@H]5[C@@H]4OC[C@H]5O)cc3Cl)cc2)CC1` [compound 24], the Emax in experiment [1] fell in the range of 150 to 200%. For the compound `O=C(Nc1cc(C2CC2)c(-c2ccc(C3(CO)CC3)cc2)s1)O[C@@H]1CO[C@H]2[C@@H]1OC[C@H]2O` [compound 22], the Emax in experiment [1] is 150 to 200%. On the same count and under the same terms, in the case of `Cn1ccc2cc(-c3sc(NC(=O)OCCCO)cc3Cl)ccc21` [compound 15] it was 70 to 100%. Regarding `O=C(Nc1cc(Cl)c(-c2ccc(C3(CO)CC3)cc2)s1)O[C@@H]1CO[C@H]2[C@@H]1OC[C@H]2O` [compound 3], the Emax in experiment [1] was 200 to 300%. In the case of `Cc1cc(NC(=O)O[C@@H]2CO[C@H]3[C@@H]2OC[C@H]3O)sc1-c1ccc(C2(CO)CC2)cc1` [compound 8], the Emax in experiment [1] was in the range of 200 to 300%. The same measure, in the same setting: in the case of `O=C(Nc1cc(Cl)c(-c2ccc(N3CCOCC3)cc2)s1)O[C@@H]1CO[C@H]2[C@@H]1OC[C@H]2O` [compound 9] it was 150 to 200%. Still for that read-out and setting: the figure for `NCCCOc1ccc(-c2sc(NC(=O)O[C@@H]3CO[C@H]4[C@@H]3OC[C@H]4O)cc2Cl)cc1` [Compound 31] is 150 to 200%; for `O=C(Nc1csc(-c2ccc(C3(CO)CC3)cc2)c1)O[C@@H]1CO[C@H]2[C@@H]1OC[C@H]2O` [compound 13] it is 200 to 300%. On the same count and under the same terms, the figure for `O=C(Nc1cc(Cl)c(-c2ccc3c(ccn3C3CC3)c2)s1)O[C@@H]1CO[C@H]2[C@@H]1OC[C@H]2O` [compound 18] is 150 to 200%; for `O=C(Nc1cc(-c2ccc(C3(CO)CC3)cc2)cs1)O[C@@H]1CO[C@H]2[C@@H]1OC[C@H]2O` [compound 2] it is 150 to 200%. With `NCCCc1ccc(-c2sc(NC(=O)O[C@@H]3CO[C@H]4[C@@H]3OC[C@H]4O)cc2Cl)cc1` [Compound 32], the Emax in experiment [1] lay in the range of 100 to 150%.

For the compound `Cn1ccc2cc(-c3sc(NC(=O)O[C@@H]4CO[C@H]5[C@@H]4OC[C@H]5O)cc3Cl)ccc21` [compound 5], the Emax in experiment [1] lay within 150 to 200%. Same read-out and setting: the figure for `O=C(Nc1cc(Cl)c(-c2ccc(OCCCN3CCOCC3)cc2)s1)O[C@@H]1CO[C@H]2[C@@H]1OC[C@H]2O` [compound 23] is ≥ 300%; for `CCOC(=O)[C@H]1CC[C@H](OC(=O)Nc2cc(Cl)c(-c3ccc(C4(CO)CC4)cc3)s2)CC1` [Compound 37] it is 70 to 100%.
